In US9745328B2, “Flap modulators” (JANSSEN PHARMACEUTICA NV, priority 2013, dated 2017) one finds Ki and IC50 data, which are given here for 32 compounds.

As a reminder, the Ki is the equilibrium dissociation constant of an inhibitor or competing ligand from its target. A lower Ki goes with a stronger hold on the target. The term IC50 denotes the concentration that gives 50% inhibition.

One experiment deals with human FLAP (Homo sapiens (Human), UniProt P20292). The experiment in a line: FLAP binding assay (HTRF format). The settings on record: human FLAP wild type, Table 6 (additional runs). The essentials:
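Binding of compounds to FLAP read out as HTRF ratio. Values are the mean of two assay plates, each sample run in duplicate per plate.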

Experiment [1] concerns leukotriene pathway in human whole blood (LTB4). Put plainly: Human whole blood assay (LTB4 levels after calcium ionophore A23187 stimulation). The format is cell-based. The settings on record: Homo sapiens, read-out: Human Whole Blood LTB4 IC50 1:1. The essentials: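 Single-replicate data from at least one healthy donor: compound pre-incubated 15 min at 37° Celsius in 1:1 RPMI-diluted heparinised blood, followed by 30 min calcium ionophore A23187 (7 μg/mL) challenge at 37° Celsius. LTB4 in plasma quantified by kit; IC50 via 4-parameter equation.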

The mark [2] stands for this setting: human whole blood diluted 1:1, A23187 stimulation, Table 6 (additional runs).

Like-named read-outs stand apart in the source and are kept apart here.

Chain of human FLAP (P20292 whole entry): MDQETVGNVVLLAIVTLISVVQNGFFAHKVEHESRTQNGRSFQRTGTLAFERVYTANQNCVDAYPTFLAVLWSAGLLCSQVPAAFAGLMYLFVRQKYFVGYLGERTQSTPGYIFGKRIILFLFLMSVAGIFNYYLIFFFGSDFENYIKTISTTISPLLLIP

In the case of `C[C@H](CO)NS(=O)(=O)c1ccccc1-c1cnc(-c2cnc(N)nc2)c(F)c1` [Example 881, 2-[6-(2-Aminopyrimidin-5-yl)-5-fluoropyridin-a-yl]-N-[(1R)-2-hydroxy-1-methylethyl]benzenesulfonamide], the affinity at human FLAP corresponds to a Ki of 76 nM. For the same compound, the 50% inhibitory concentration (IC50) in experiment [1] (setting [2]) came out at 128 nM.

Turning to `Nc1ncc(-c2ncc(-c3ccccc3S(=O)(=O)NCCO)cc2F)cn1` [Example 882, 2-[6-(2-Aminopyrimidin-5-yl)-5-fluoropyridin-3-yl]-N-(2-hydroxyethyl)benzenesulfonamide], the Ki at human FLAP worked out at 167 nM. For the same compound, in experiment [1] (setting [2]), the IC50 came to 68.8 nM.

On human FLAP, `C[C@@H](NS(=O)(=O)c1ccccc1-c1cnc(-c2cnc(N)nc2)c(F)c1)C(F)(F)F` [Example 883, 2-[6-(2-Aminopyrimidin-5-yl)-5-fluoropyridin-3yl]-N-[(1R)-2,2,2-trifluoro-1-methylethyl]benzenesulfonamide] registered a Ki of 34.2 nM. Also, the IC50 in experiment [1] (setting [2]) turned out to be 69.5 nM.

In turn, `Nc1cnc(-c2ccc(-c3ccccc3OCC3CCS(=O)(=O)CC3)cc2F)cn1` [Example 884, 5-{2′-[(1,1-Dioxidotetrahydro-2H-thiopyran-4-yl)methoxy]-3-fluorobiphenyl-4-yl}pyrazin-2-amine] returned a Ki at human FLAP of 239 nM. The 50% inhibitory concentration (IC50) in experiment [1] (setting [2]) is 706 nM.

With `Nc1cnc(-c2ccc(-c3ccccc3OC3CCS(=O)(=O)CC3)cc2F)cn1` [Example 885, 5-{2′-[(1,1-Dioxidotetrahydro-2H-thiopyran-4-yl)oxy]-3-fluorobiphenyl-4-yl}pyrazin-2-amine], on human FLAP, the Ki amounted to 40.8 nM. Also, the IC50 in experiment [1] (setting [2]) came to 1060 nM.

`Nc1cnc(-c2ccc(-c3ccccc3OCc3ccc(C(=O)O)cc3)cc2F)cn1` [Example 886, 4-(([4′-(5-Aminopyrazin-2-yl)-3′-fluorobiphenyl-2-yl]oxy}methyl)benzoic acid] returned a Ki at human FLAP of 5.8 nM. In addition, in experiment [1] (setting [2]), the IC50 was more than 1000 nM.

Regarding `Nc1ncc(-c2ccc(-c3ccccc3OCc3ccc(C(=O)O)cc3)cc2F)cn1` [Example 887, 4-({[4′-(2-Aminopyrimidin-5-yl)-3′-fluorobiphenyl-2-yl]oxy}methyl)benzoic acid], the Ki at human FLAP came out at 30.4 nM. Further, in experiment [1] (setting [2]), the IC50 was more than 1000 nM.

Consider `Nc1cnc(-c2ccc(-c3ccccc3Oc3ccc(C(=O)O)cc3)cc2F)cn1` [Example 888, 4-{[4′-(5-Aminopyrazin-2-yl)-3′-fluorobiphenyl-2-yl]oxy}benzoic acid], for which the Ki on human FLAP worked out at 0.7 nM. Besides, in experiment [1] (setting [2]), the IC50 was 367 nM.

Compound `Nc1ncc(-c2ccc(-c3ccccc3Oc3ccc(C(=O)O)cc3)cc2F)cn1` [Example 889, 4-{[4′-(2-Aminopyrimidin-5-yl)-3′-fluorobiphenyl-2-yl]oxy}benzoic acid] displayed a Ki at human FLAP of 3.9 nM. For the same compound, the IC50 in experiment [1] (setting [2]) was determined as 236 nM.

At human FLAP, `NC(=O)c1ccc(Oc2ccccc2-c2ccc(-c3cnc(N)nc3)c(F)c2)cc1` [Example 890, 4-{[4′-(2-Aminopyrimidin-5-yl)-3′-fluorobiphenyl-2-yl]oxy)benzamide] came in with a Ki of 3.7 nM. Also, the IC50 in experiment [1] (setting [2]) was determined as 62.3 nM.

`Nc1cnc(-c2ccc(-c3ccccc3O[C@H]3CC[C@H](N)CC3)cc2F)cn1` [Example 891] yielded a Ki at human FLAP of 31.5 nM. Also, in experiment [1] (setting [2]), the half-inhibitory concentration (IC50) came out at 752 nM.

On human FLAP, `Nc1cnc(-c2ccc(-c3ccc(C(F)(F)F)cc3N)cc2F)cn1` [Example 892, 5-[2′-Amino-3-fluoro-4′-(trifluoromethyl)biphenyl-4-yl]pyrazin-2-amine] returned a Ki of 77.4 nM. The IC50 in experiment [1] (setting [2]) was 731 nM.

For the compound `Nc1cnc(-c2ccc(-c3cccnc3-c3ccccc3)cc2F)cn1` [Example 893, 5-[2-Fluoro-4-(2-phenylpyridin-3-yl)phenyl]pyrazin-2-amine], the Ki on human FLAP is 30.3 nM. For the same compound, the IC50 in experiment [1] (setting [2]) amounted to 603 nM.

At human FLAP, `Nc1cnc(-c2ccc(-c3cccnc3Oc3ccccc3)cc2F)cn1` [Example 894, 5-[2-Fluoro-4-(2-phenoxypyridin-3-yl)phenyl]pyrazin-2-amine] came in with a Ki of 3.8 nM. The IC50 in experiment [1] (setting [2]) was determined as 141 nM.

In the case of `Nc1ncc(-c2ccc(-c3cccnc3Oc3ccccc3)cc2F)cn1` [Example 895, 5-[2-Fluoro-4-(2-phenoxypyridin-3-yl)phenyl]pyrimidin-2-amine], the affinity at human FLAP, expressed as Ki, was 13.2 nM. Besides, in experiment [1] (setting [2]), the half-maximal inhibitory concentration (IC50) stood at 222 nM.

The compound `Nc1cnc(-c2ccc(-c3cccnc3Oc3cccnc3)cc2F)cn1` [Example 896, 5-{2-Fluoro-4-[2-(pyridin-3-yloxy)pyridin-3-yl]phenyl}pyrazin-2-amine] gave a Ki at human FLAP of 22.1 nM. Moreover, in experiment [1] (setting [2]), the IC50 stood at 466 nM.

In the case of `Nc1cnc(-c2ccc(-c3cccnc3S(=O)(=O)c3ccccc3)cc2F)cn1` [Example 897, 5-{2-Fluoro-4-[2-(phenylsulfonyl)pyridin-3-yl]phenyl}pyrazin-2-amine], on human FLAP, the affinity, expressed as Ki, was 7 nM. In addition, the IC50 in experiment [1] (setting [2]) worked out at 90.3 nM.

As to `Nc1ncc(-c2ccc(-c3cccnc3S(=O)(=O)c3ccccc3)cc2F)cn1` [Example 898, 5-{2-Fluoro-4-[2-(phenylsulfonyl)pyridin-3-yl]phenyl}pyrimidin-2-amine], the Ki at human FLAP was 79.7 nM. For the same compound, the IC50 in experiment [1] (setting [2]) was determined as 928 nM.

With `Nc1cnc(-c2ccc(-c3cccnc3S(=O)(=O)c3cccnc3)cc2F)cn1` [Example 899, 5-{2-Fluoro-4-[2-(pyridin-3-ylsulfonyl)pyridin-3-yl]phenyl}pyrazin-2-amine], the Ki at human FLAP turned out to be 77 nM. The IC50 in experiment [1] (setting [2]) turned out to be 87.3 nM.

In turn, `CN1CCC(S(=O)(=O)c2ncccc2-c2ccc(-c3cnc(N)cn3)c(F)c2)C1` (stereo not shown) [Example 900, 5-(2-Fluoro-4-{2-[(1-methylpyrrolidin-3-yl)sulfonyl]pyridin-3-yl}phenyl)pyrazin-2-amine] came in with a Ki at human FLAP of 35.1 nM. The IC50 in experiment [1] (setting [2]) turned out to be 40.8 nM.

Consider `CC(C)S(=O)(=O)c1nc(C(F)(F)F)ccc1-c1ccc(-c2cnc(N)cn2)c(F)c1` [Example 901, 5-(2-Fluoro-4-{2-[(1-methylethyl)sulfonyl]-6-(trifluoromethyl)pyridin-3-yl}phenyl)pyrazin-2-amine], for which the affinity at human FLAP corresponds to a Ki of 1.8 nM. For the same compound, the IC50 in experiment [1] (setting [2]) came out at 1.6 nM.

As to `CC(C)S(=O)(=O)c1nc(C(F)(F)F)ccc1-c1ccc(-c2cnc(N)nc2)c(F)c1` [Example 902, 5-(2-Fluoro-4-{2-[(1-methylethyl)sulfonyl]-6-(trifluoromethyl)pyridin-3-yl}phenyl)pyrimidin-2-amine], the inhibition constant Ki on human FLAP was determined as 18.4 nM. In addition, in experiment [1] (setting [2]), the 50% inhibitory concentration (IC50) stood at 88.6 nM.

On to `CC(=O)N1CCCC(S(=O)(=O)c2ncccc2-c2ccc(-c3cnc(N)cn3)c(F)c2)C1` (stereo not shown) [Example 903, 5-(4-{2-[(1-Acetylpiperidin-3-yl)sulfonyl]pyridin-3-yl}-2-fluorphenyl)pyrazin-2-amine], for which the Ki on human FLAP came to 38.7 nM. Further, in experiment [1] (setting [2]), the IC50 came to 63.4 nM.

For the compound `Nc1cnc(-c2ccc(-c3cccnc3S(=O)(=O)C3CCN(CCO)CC3)cc2F)cn1` [Example 904, 2-[4-({3-[4-(5-Aminopyrazin-2-yl)-3-fluorophenyl]pyridin-2-yl}sulfonyl)pipendin-1-yl]ethanol], at human FLAP, the inhibitory constant (Ki) was found to be 255 nM. For the same compound, the IC50 in experiment [1] (setting [2]) was 105 nM.

For `Nc1cnc(-c2ccc(-c3ccc(C(F)(F)F)nc3S(=O)(=O)C3CCOCC3)cc2F)cn1` [Example 906, 5-{2-Fluoro-4-[2-(tetrahydro-2H-pyran-4-ylsulfonyl)-6-(trifluoromethyl)pyridin-3-yl]phenyl}pyrazin-2-amine], the Ki at human FLAP worked out at 0.3 nM. In experiment [1] (setting [2]), the IC50 came out at 2 nM.

Turning to `Nc1ncc(-c2ccc(-c3ccc(C(F)(F)F)nc3S(=O)(=O)C3CCOCC3)cc2F)cn1` [Example 907, 5-{2-Fluoro-4-[2-(tetrahydro-2H-pyran-4-ylsulfonyl)-6-(trifluoromethyl)pyridin-3-yl]phenyl}pyrimidin-2-amine], the inhibition constant Ki on human FLAP was found to be 6 nM. For the same compound, in experiment [1], the IC50 was 12 nM.

Turning to `CS(=O)(=O)N1CCC(S(=O)(=O)c2ncccc2-c2ccc(-c3cnc(N)cn3)c(F)c2)CC1` [Example 908, 5-[2-Fluoro-4-(2-{[1-(methylsulfonyl)piperidin-4-yl]sulfonyl}pyridin-3-yl)phenyl]pyrazin-2-amine], the affinity at human FLAP corresponds to a Ki of 26.6 nM. In addition, the IC50 in experiment [1] (setting [2]) was 43.7 nM.

Take `CS(=O)(=O)N1CCC(S(=O)(=O)c2ncccc2-c2ccc(-c3cnc(N)nc3)c(F)c2)CC1` [Example 909, 5-(2-Fluoro-4-(2-{[1-(methylsulfonyl)piperidin-4-yl]sulfonyl}pyridin-3-yl)phenyl]pyrimidin-2-amine]: affinity on human FLAP was put at a Ki of 253 nM. Besides, the IC50 in experiment [1] (setting [2]) was found to be 117 nM.

`CC(=O)N1CCC(S(=O)(=O)c2nc(C(F)(F)F)ccc2-c2ccc(-c3cnc(N)cn3)c(F)c2)CC1` [Example 910] yielded a Ki on human FLAP of 2.9 nM. In addition, in experiment [1] (setting [2]), the IC50 was determined as 9.2 nM.

The compound `CC(=O)N1CCC(S(=O)(=O)c2nc(C(F)(F)F)ccc2-c2ccc(-c3cnc(N)nc3)c(F)c2)CC1` [Example 911, 5-(4-{2-[(1-Acetylpiperidin-4-yl)sulfonyl]-6-(trifluoromethyl)pyridin-3-yl}-2-fluorophenyl)pyrimidin-2-amine] came in with a Ki at human FLAP of 166 nM. Also, the IC50 in experiment [1] (setting [2]) came out at 28.7 nM.

`Nc1cnc(-c2ccc(-c3ccc(C(F)(F)F)nc3S(=O)(=O)C3CCS(=O)(=O)CC3)cc2F)cn1` [Example 912, 5-(4-{2-[(1,1-Dioxidotetrahydro-2H-thiopyran-4-yl)sulfonyl]-6-(trifluoromethyl)pyridin-3-yl}-2-fluorophenyl)pyrazin-2-amine] displayed a Ki on human FLAP of 0.5 nM. Moreover, the concentration for half-maximal inhibition (IC50) in experiment [1] (setting [2]) stood at 8.8 nM.

On human FLAP, `Nc1ncc(-c2ccc(-c3ccc(C(F)(F)F)nc3S(=O)(=O)C3CCS(=O)(=O)CC3)cc2F)cn1` [Example 913, 5-(4-{2-[(1,1-Dioxidotetrahydro-2H-thiopyran-4-yl)sulfonyl]-6-(trifluoromethyl)pyridin-3-yl}-2-fluorophenyl)pyrimidin-2-amine] showed an inhibition constant Ki of 6.3 nM. Besides, in experiment [1] (setting [2]), the IC50 worked out at 11.9 nM.
